Results published in patent US20240083920A1, “LOW MOLECULAR WEIGHT CORROLE COMPOSITIONS” (TECHNION RESEARCH & DEVELOPMENT FOUNDATION LTD, priority 2021, published 2024).

Assay: Stability in solution / on storage
Conditions: in solution / ambient conditions

C1=Cc2cc3ccc([nH]3)c3ccc(cc4ccc(cc1n2)[nH]4)[nH]3 [H3(cor)]
stability: stability was limited due to ambient humidity and light conditions
